Patent US20110136730A1, “"Method for screening compounds comprising the use of picornavirus protease 2A"” (priority 2008, published 2011)

tested on: WT FMDV StopGo expressing construct in HEK-293 cells; format: cell-based, human

Compound | effect on the Renilla/firefly ratio of the WT StopGo expressing construct
C=C[C@]1(C)C[C@@H](OC(=O)CSC(C)(C)CNC(=O)[C@H](N)C(C)C)[C@]2(C)[C@H](C)CC[C@]3(CCC(=O)[C@H]32)[C@@H](C)[C@@H]1O [valnemulin] | do not affect StopGo
C=C[C@]1(C)C[C@@H](OC(=O)CSCCN(CC)CC)[C@]2(C)[C@H](C)CC[C@]3(CCC(=O)[C@H]32)[C@@H](C)[C@@H]1O [tiamulin] | do not affect StopGo
C[C@H]1O[C@H](O[C@H]2[C@H](O)[C@@H](O)[C@@H](O)[C@H](O)[C@@H]2O)[C@@H](N)C[C@@H]1NC(=N)C(=O)O [kasugamycin] | do not affect StopGo
gentamycin | do not affect StopGo
CC[C@H]1OC(=O)C[C@@H](O)[C@H](C)[C@@H](O[C@@H]2O[C@H](C)[C@@H](O[C@H]3C[C@@](C)(O)[C@@H](O)[C@H](C)O3)[C@H](N(C)C)[C@H]2O)[C@@H](CC=O)C[C@@H](C)C(=O)/C=C/C(C)=C/[C@@H]1CO[C@@H]1O[C@H](C)[C@@H](O)[C@@H](OC)[C@H]1OC [tylosin] | do not affect StopGo
capromycin | do not affect StopGo
CCC[C@@H]1C[C@@H](C(=O)N[C@@H]([C@H]2O[C@H](SC)[C@H](O)[C@@H](O)[C@H]2O)[C@@H](C)O)N(C)C1 [lincomycin] | do not affect StopGo
CC[C@H]1OC(=O)[C@H](C)[C@@H](O[C@H]2C[C@@](C)(OC)[C@@H](O)[C@H](C)O2)[C@H](C)[C@@H](O[C@@H]2O[C@H](C)C[C@H](N(C)C)[C@H]2O)[C@](C)(O)C[C@@H](C)CN(C)[C@H](C)[C@@H](O)[C@]1(C)O [azithromycin] | do not affect StopGo
CC[C@H]1OC(=O)[C@H](C)[C@@H](O[C@H]2C[C@@](C)(OC)[C@@H](O)[C@H](C)O2)[C@H](C)[C@@H](O[C@@H]2O[C@H](C)C[C@H](N(C)C)[C@H]2O)[C@](C)(OC)C[C@@H](C)C(=O)[C@H](C)[C@@H](O)[C@]1(C)O [clarithromycin] | do not affect StopGo
COc1ccc(C[C@H]2NC[C@H](O)[C@H]2OC(C)=O)cc1 [anisomycin] | do not affect StopGo
CO[C@H]1C[C@H](O[C@H]2[C@H](C)[C@@H](O[C@@H]3O[C@H](C)C[C@H](N(C)C)[C@H]3OC(C)=O)[C@@H](C)C[C@@]3(CO3)C(=O)[C@H](C)[C@@H](OC(C)=O)[C@@H](C)[C@@H](C)OC(=O)[C@@H]2C)O[C@@H](C)[C@@H]1OC(C)=O [troleandomycin] | do not affect StopGo
CCC[C@@H]1C[C@@H](C(=O)N[C@@H]([C@H]2O[C@H](SC)[C@H](O)[C@@H](O)[C@H]2O)[C@H](C)Cl)N(C)C1 [clindomygin] | do not affect StopGo
